This assay concerns P12-Ichikawa. The assay is described as follows: cell viability relative to DMSO control; higher = less cytotoxic. Conditions: 48 h. The method in brief:
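Before seeding, each leukemia line was adapted for at least four passages in each medium. NOMO1 or SEM cells (500 cells/well) and P12-Ichikawa cells (1000 cells/well) went into 1536-well plates at 5 μl, then received library compounds in DMSO by pin dosing across 11 threefold concentrations, 47 μM to 0.79 nM. Readout was CellTiter-Glo One luminescence after 48 h at 37°C, and viability is given as a per-plate percentage of DMSO wells, with cell-free wells as background.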

The mark [1] stands for this setting: HPLM + 10% dialyzed FBS, 0.000781 µM.
Where [2] appears, read: HPLM + 10% dialyzed FBS, 0.00234 µM.
Setting [3] is: HPLM + 10% dialyzed FBS, 0.00702 µM.
Setting [4] is: HPLM + 10% dialyzed FBS, 0.0211 µM.
[5] abbreviates: HPLM + 10% dialyzed FBS, 0.0632 µM.
The mark [6] stands for this setting: HPLM + 10% dialyzed FBS, 0.19 µM.
Where [7] appears, read: HPLM + 10% dialyzed FBS, 0.569 µM.
The mark [8] stands for this setting: HPLM + 10% dialyzed FBS, 1.71 µM.
Where [9] appears, read: HPLM + 10% dialyzed FBS, 5.12 µM.
[10] abbreviates: HPLM + 10% dialyzed FBS, 15.4 µM.
Where [11] appears, read: HPLM + 10% dialyzed FBS, 46.1 µM.

Drawing on the supplement of paper PMC11451515, this text covers cell viability for 3 compounds.

In general, cell viability refers to a read-out of living cells in per cent, often relative to untreated cells.

On to `CN1\N=N/C2=C(N=C[N]2C1=O)C(N)=O`, for which the cell viability worked out at 127% under setting [1]; 124% under setting [2]; 125% under setting [3]; 121% under setting [4]; 128% under setting [5]; 125% under setting [6]. Also, the cell viability reads like this: under setting [7], 134%; under setting [8], 127%; under setting [9], 128%; under setting [10], 115%; under setting [11], 88.8%.

Turning to `O=[S+]([O-])(/N=C/c1c(O)ccc2ccccc12)c1cccs1`, the cell viability is, setting by setting: under setting [1], 109%; under setting [2], 113%; under setting [3], 116%; under setting [4], 120%; under setting [5], 120%; under setting [6], 120%. Besides, the cell viability under setting [7] came out at 117%; the cell viability under setting [8] stood at 122%; the cell viability under setting [9] turned out to be 124%; the cell viability under setting [10] is 103%; the cell viability under setting [11] was determined as 84.6%; the cell viability (RPMI 5 mM glucose + 10% FBS, 0.000781 µM) worked out at 119%. Further, the cell viability is, setting by setting: (RPMI 5 mM glucose + 10% FBS, 0.00234 µM) 123%; (RPMI 5 mM glucose + 10% FBS, 0.00702 µM) 130%; (RPMI 5 mM glucose + 10% FBS, 0.0211 µM) 115%; (RPMI 5 mM glucose + 10% FBS, 0.0632 µM) 120%; (RPMI 5 mM glucose + 10% FBS, 0.19 µM) 120%; (RPMI 5 mM glucose + 10% FBS, 0.569 µM) 133%. Besides, the cell viability by setting is: (RPMI 5 mM glucose + 10% FBS, 1.71 µM) 123%; (RPMI 5 mM glucose + 10% FBS, 5.12 µM) 132%; (RPMI 5 mM glucose + 10% FBS, 15.4 µM) 123%; (RPMI 5 mM glucose + 10% FBS, 46.1 µM) 125%; (RPMI 5 mM glucose + 10% dialyzed FBS, 0.000781 µM) 117%; (RPMI 5 mM glucose + 10% dialyzed FBS, 0.00234 µM) 121%. Also, the cell viability amounted to 126% (RPMI 5 mM glucose + 10% dialyzed FBS, 0.00702 µM); 125% (RPMI 5 mM glucose + 10% dialyzed FBS, 0.0211 µM); 124% (RPMI 5 mM glucose + 10% dialyzed FBS, 0.0632 µM); 124% (RPMI 5 mM glucose + 10% dialyzed FBS, 0.19 µM); 120% (RPMI 5 mM glucose + 10% dialyzed FBS, 0.569 µM); 122% (RPMI 5 mM glucose + 10% dialyzed FBS, 1.71 µM). Further, the cell viability reads like this: (RPMI 5 mM glucose + 10% dialyzed FBS, 5.12 µM) 121%; (RPMI 5 mM glucose + 10% dialyzed FBS, 15.4 µM) 109%; (RPMI 5 mM glucose + 10% dialyzed FBS, 46.1 µM) 103%.

As to `Clc1ccccc1C(c1ccccc1)(c1ccccc1)n1cccn1`, the cell viability is, setting by setting: under setting [1], 123%; under setting [2], 134%; under setting [3], 119%; under setting [4], 129%; under setting [5], 125%; under setting [6], 130%. The cell viability under setting [7] came out at 122%; the cell viability under setting [8] was 126%; the cell viability under setting [9] turned out to be 128%; the cell viability under setting [10] was 116%; the cell viability under setting [11] was 114%.
